# In ChEMBL document CHEMBL3525934 (Drug Metab Dispos, 2013):
# Key:
# Assay type in all cases: ADME
# Settings in all cases: 0.5 h
# Cytochrome P450 1A2 [1] = biological target: T1, Cytochrome P450 1A2 (Homo sapiens, UniProt P05177); test: Drug metabolism in supersomes expressing human recombinant CYP1A2 assessed as enzyme-mediated clozapine-N-oxide metabolite formation at 10 uM after 30 mins measured per nmol of P450 by HPLC analysis
# T1 sequence (P05177 whole entry): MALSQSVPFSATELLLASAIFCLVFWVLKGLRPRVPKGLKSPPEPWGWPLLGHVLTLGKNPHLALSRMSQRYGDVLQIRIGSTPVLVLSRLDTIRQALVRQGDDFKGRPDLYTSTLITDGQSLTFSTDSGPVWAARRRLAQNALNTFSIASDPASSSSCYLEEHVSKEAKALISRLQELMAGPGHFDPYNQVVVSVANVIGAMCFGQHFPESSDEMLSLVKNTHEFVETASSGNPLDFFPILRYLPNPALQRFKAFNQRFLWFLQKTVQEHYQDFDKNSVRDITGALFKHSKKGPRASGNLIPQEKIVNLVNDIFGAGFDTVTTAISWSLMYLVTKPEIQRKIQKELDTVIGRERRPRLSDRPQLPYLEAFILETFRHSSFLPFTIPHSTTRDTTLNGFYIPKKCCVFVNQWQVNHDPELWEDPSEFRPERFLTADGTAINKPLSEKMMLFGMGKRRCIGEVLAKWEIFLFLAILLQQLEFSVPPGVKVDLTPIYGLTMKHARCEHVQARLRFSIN
# Cytochrome P450 2C9 = Cytochrome P450 2C9 (Homo sapiens, UniProt P11712); test: Drug metabolism in supersomes expressing human recombinant CYP2C9 assessed as enzyme-mediated clozapine-N-oxide metabolite formation at 10 uM after 30 mins measured per nmol of P450 by HPLC analysis
# Cytochrome P450 2C9, sequence (P11712 whole entry): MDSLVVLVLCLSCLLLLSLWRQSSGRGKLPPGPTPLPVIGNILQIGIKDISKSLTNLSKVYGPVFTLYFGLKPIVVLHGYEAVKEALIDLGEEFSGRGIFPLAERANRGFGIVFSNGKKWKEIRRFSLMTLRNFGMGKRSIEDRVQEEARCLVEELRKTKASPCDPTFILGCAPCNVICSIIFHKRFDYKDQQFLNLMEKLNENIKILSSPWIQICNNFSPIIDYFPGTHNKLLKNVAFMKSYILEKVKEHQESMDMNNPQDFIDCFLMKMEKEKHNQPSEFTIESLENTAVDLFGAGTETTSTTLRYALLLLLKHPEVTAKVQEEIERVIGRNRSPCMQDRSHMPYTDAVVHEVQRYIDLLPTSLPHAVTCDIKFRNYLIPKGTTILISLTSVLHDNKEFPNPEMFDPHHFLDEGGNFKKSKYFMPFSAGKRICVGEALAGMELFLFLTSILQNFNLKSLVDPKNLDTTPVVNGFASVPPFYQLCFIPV
# Cytochrome P450 1A1 [2] = biological target: T2, Cytochrome P450 1A1 (Homo sapiens, UniProt P04798); test: Drug metabolism in supersomes expressing human recombinant CYP1A1 assessed as enzyme-mediated N-desmethylclozapine metabolite formation at 10 uM after 30 mins measured per nmol of P450 by HPLC analysis
# T2 sequence (P04798 whole entry): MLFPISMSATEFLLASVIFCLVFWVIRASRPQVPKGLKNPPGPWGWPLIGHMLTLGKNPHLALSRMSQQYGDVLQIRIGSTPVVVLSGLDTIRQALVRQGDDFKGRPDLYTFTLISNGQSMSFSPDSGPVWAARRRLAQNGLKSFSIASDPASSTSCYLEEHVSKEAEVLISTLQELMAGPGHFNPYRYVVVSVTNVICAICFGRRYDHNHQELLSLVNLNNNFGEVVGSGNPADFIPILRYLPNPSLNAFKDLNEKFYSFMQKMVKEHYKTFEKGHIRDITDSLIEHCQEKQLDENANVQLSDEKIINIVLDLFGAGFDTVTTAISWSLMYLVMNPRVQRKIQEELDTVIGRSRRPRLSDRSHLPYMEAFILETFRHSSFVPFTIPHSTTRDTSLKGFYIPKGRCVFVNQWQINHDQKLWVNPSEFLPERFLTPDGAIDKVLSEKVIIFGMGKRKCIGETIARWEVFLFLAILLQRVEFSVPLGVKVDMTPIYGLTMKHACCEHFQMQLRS
# Cytochrome P450 1A1 [3] = biological target: T2, Cytochrome P450 1A1; test: Drug metabolism in supersomes expressing human recombinant CYP1A1 assessed as enzyme-mediated total GSH conjugate formation at 100 uM after 30 mins measured per nmol of P450 by HPLC analysis in presence of GSH and hGST P1-1
# Cytochrome P450 2C18 = biological target: T3, Cytochrome P450 2C18 (Homo sapiens, UniProt P33260); test: Drug metabolism in supersomes expressing human recombinant CYP2C18 assessed as enzyme-mediated N-desmethylclozapine metabolite formation at 100 uM after 30 mins measured per nmol of P450 by HPLC analysis
# T3 sequence (P33260 whole entry): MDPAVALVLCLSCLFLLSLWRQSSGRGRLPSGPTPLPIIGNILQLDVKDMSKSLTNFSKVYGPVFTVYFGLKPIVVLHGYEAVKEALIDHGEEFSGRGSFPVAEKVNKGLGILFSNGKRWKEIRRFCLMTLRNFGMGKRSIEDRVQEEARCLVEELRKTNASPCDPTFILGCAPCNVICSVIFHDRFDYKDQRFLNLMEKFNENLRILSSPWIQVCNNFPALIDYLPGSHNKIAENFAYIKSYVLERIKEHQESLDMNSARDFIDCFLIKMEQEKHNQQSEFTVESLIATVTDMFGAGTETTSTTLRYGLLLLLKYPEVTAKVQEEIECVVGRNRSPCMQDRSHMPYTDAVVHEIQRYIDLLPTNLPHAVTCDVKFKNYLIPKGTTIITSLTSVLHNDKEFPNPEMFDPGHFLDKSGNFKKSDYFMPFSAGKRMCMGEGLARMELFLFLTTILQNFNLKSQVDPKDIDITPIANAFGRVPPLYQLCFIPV
# Cytochrome P450 2C19 [4] = biological target: T4, Cytochrome P450 2C19 (Homo sapiens, UniProt P33261); test: Drug metabolism in supersomes expressing human recombinant CYP2C19 assessed as enzyme-mediated N-desmethylclozapine metabolite formation at 100 uM after 30 mins measured per nmol of P450 by HPLC analysis
# T4 sequence (P33261 whole entry): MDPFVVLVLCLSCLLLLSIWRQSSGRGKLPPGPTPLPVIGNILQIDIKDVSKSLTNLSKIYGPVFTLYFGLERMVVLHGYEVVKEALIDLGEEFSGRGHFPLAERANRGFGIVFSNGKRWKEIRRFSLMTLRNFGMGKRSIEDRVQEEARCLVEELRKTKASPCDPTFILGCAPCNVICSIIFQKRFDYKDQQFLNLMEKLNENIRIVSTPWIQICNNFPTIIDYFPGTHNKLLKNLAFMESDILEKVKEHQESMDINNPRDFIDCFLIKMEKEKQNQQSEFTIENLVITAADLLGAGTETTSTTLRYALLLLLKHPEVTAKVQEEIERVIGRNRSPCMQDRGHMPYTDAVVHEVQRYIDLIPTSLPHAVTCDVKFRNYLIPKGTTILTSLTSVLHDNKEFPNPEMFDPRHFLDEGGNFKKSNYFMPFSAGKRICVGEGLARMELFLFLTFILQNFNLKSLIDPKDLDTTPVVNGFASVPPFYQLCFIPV
# Cytochrome P450 1A2 [5] = biological target: T1, Cytochrome P450 1A2; test: Drug metabolism in supersomes expressing human recombinant CYP1A2 assessed as enzyme-mediated N-desmethylclozapine metabolite formation at 10 uM after 30 mins measured per nmol of P450 by HPLC analysis
# Cytochrome P450 2D6 [6] = biological target: T5, Cytochrome P450 2D6 (Homo sapiens, UniProt P10635); test: Drug metabolism in supersomes expressing human recombinant CYP2D6 assessed as enzyme-mediated total GSH conjugate formation at 10 uM after 30 mins measured per nmol of P450 by HPLC analysis in presence of GSH and hGST P1-1
# T5 sequence (P10635 whole entry): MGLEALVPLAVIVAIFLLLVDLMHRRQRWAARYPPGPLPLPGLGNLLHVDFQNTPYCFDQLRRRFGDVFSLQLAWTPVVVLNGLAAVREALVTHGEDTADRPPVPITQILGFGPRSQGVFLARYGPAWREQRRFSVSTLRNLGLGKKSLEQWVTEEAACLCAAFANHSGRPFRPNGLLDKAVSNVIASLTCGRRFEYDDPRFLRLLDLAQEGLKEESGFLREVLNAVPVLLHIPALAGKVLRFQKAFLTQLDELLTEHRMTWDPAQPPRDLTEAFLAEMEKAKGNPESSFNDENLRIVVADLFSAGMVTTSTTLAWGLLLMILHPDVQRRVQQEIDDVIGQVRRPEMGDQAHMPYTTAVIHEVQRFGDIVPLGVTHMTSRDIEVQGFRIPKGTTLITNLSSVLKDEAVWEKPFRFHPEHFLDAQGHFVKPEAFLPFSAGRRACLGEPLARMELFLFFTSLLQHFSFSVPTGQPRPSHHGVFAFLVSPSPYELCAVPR
# Cytochrome P450 2C19 [7] = biological target: T4, Cytochrome P450 2C19; test: Drug metabolism in supersomes expressing human recombinant CYP2C19 assessed as enzyme-mediated N-desmethylclozapine metabolite formation at 10 uM after 30 mins measured per nmol of P450 by HPLC analysis
# Cytochrome P450 2D6 [8] = biological target: T5, Cytochrome P450 2D6; test: Drug metabolism in supersomes expressing human recombinant CYP2D6 assessed as enzyme-mediated N-desmethylclozapine metabolite formation at 100 uM after 30 mins measured per nmol of P450 by HPLC analysis
structure (smiles),measurement,setting,value
CN1CCN(C2=Nc3cc(Cl)ccc3Nc3ccccc32)CC1 [CLOZAPINE],Drug metabolism,Cytochrome P450 1A2 [1],0.55 nmol/min/nmol P450
same,Drug metabolism,Cytochrome P450 2C9,0.065 nmol/min
same,Drug metabolism,Cytochrome P450 1A1 [2],0.64 nmol/min
same,Drug metabolism,Cytochrome P450 1A1 [3],0.32 nmol/min
same,Drug metabolism,Cytochrome P450 2C18,5.71 nmol/min/nmol P450
same,Drug metabolism,Cytochrome P450 2C19 [4],5.11 nmol/min
same,Drug metabolism,Cytochrome P450 1A2 [5],1.12 nmol/min
same,Drug metabolism,Cytochrome P450 2D6 [6],0.47 nmol/min
same,Drug metabolism,Cytochrome P450 2C19 [7],6.62 nmol/min/nmol P450
same,Drug metabolism,Cytochrome P450 2D6 [8],23.7 nmol/min
